Reference: BindingDB's records for doi:10.1111/cbdd.12497 (Shandong University, 2015)

target: Reverse transcriptase protein (Human immunodeficiency virus 1, UniProt Q9WJQ1); experiment: In vitro Anti-HIV RT Assay
From the text: The HIV-1 RTwt inhibition assay was implemented using the template/primer hybrid poly(A)9oligo(dT)15, digoxigenin- and biotin-labeled nucleotides, an antibody to digoxigenin which is conjugated to peroxidase (anti-DIG-POD), and the peroxidase substrate ABTS for quantifying the RT polymerase activity. The incorporation quantities of the digoxigenin- and biotin-labeled dUTP into DNA represented the activity of HIV-1 RT. The IC50 value corresponds to the concentration of the tested compound required to inhibit the incorporation of the labeled dUTP by 50%. The procedure for RT assay was performed as described in the kit (Roche) protocol

SMILES	IC50
Cc1cc(C)cc(C(=O)c2cccnc2Oc2ccc(C#N)cc2)c1 [4-(3-(3,5-Dimethylbenzoyl)pyridin-2-yloxy)benzonitrile (6a1)]	150 µM
Cc1cc(C#N)cc(C)c1Oc1nc(Nc2ccc(C#N)cc2)nc(N)c1Br	0.089 µM
Cc1ccnc2c1NC(=O)c1cccnc1N2C1CC1 [BI-RG-587]	0.58 µM
